{"source": "patent US20200131156A1", "about": "“ARYLSULFONYLPYROLECARBOXAMIDE DERIVATIVES AS Kv3 POTASSIUM CHANNEL ACTIVATORS” (H. Lundbeck A/S, priority 2018, published 2020)", "target": "T1, hKv3.1b (Homo sapiens, UniProt P48547)", "T1 construct": "expressed in transfected cells", "T1 sequence (P48547 1-585 isoform P48547-2)": "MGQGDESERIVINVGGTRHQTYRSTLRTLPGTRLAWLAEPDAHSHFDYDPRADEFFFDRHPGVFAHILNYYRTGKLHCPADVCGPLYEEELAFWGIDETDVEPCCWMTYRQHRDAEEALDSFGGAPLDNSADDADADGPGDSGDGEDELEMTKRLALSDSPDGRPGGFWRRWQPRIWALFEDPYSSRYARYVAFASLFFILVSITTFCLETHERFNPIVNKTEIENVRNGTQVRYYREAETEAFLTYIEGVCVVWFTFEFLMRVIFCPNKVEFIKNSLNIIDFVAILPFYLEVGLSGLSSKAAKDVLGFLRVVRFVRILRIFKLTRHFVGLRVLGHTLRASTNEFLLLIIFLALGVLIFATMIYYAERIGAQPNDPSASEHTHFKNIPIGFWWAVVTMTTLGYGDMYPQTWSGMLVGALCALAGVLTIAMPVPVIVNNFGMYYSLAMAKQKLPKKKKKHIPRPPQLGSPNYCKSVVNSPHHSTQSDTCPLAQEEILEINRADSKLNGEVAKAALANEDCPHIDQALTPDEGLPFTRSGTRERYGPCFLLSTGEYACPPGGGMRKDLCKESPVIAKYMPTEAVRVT", "assay": "Automated patch clamp (QPatch-16x) on HEK-293 cells stably expressing hKv3.1b", "format": "cell-based", "conditions": "for ECdelta5 mV: concentration needed to shift the activation threshold 5 mV; for Threshold Shift: maximum absolute hyperpolarizing shift of activation threshold at tested concentrations 0.37-30 μM", "protocol": "HEK-293 cells stably expressing hKv3.1b were used for the experiments. Cells were cultured in DMEM medium supplemented with 10% Fetal Bovine Serum, 100 ug/mL Geneticidin and 100 u/mL Penicillin/Streptomycin (all from Gibco). Cells were grown to 80-90% confluency at 37° C. and 5% CO2. On the day of the experiment the cells were detached from the tissue culture flasks by Detachin, resuspended in serum free medium containing 25 mM HEPES and transferred to the cell hotel of the QPatch. The cells were used for experiments 0-5 hours after detachment.\nPatch-clamp recordings were performed using the automated recording system QPatch-16x (Sophion Bioscience, Denmark). Cells were centrifuged, SFM removed and the cells were resuspended in extracellular buffer containing (in mM): 145 NaCl, 4 KCl, 1 MgCl2, 2 CaCl2, 10 HEPES and 10 glucose (added fresh on the day of experiment); pH 7.4 adjusted with NaOH, 305 mOsm adjusted with sucrose.\nSingle cell whole-cell recordings were carried out using an intracellular solution containing (in mM): 120 KCl, 32.25/10 KOH/EGTA, 5.374 CaCl2, 1.75 MgCl2, 10 HEPES, 4 Na2ATP (added fresh on the day), pH 7.2 adjusted with KOH, […] adjusted with sucrose. Cell membrane potentials were held at −80 mV and currents were evoked by voltage steps (200 ms duration) from −70 mV to +10 mV (in 10 mV increments). Vehicle (0.33% DMSO) or increasing concentration of compound (I) were applied and the voltage protocol was run 3 times (resulting in 3 min cpd incubation time). Five increasing concentrations of compound (I) were applied to each cell.\nLeak subtraction protocol was applied at −33% of the sweep amplitude, and serial resistance values were constantly monitored.\nAny cell where serial resistance exceeded 25 MOhm, membrane resistance less than 200 MOhm or current size at −10 mV less than 200 pA was eliminated from the subsequent analysis.\nData analysis was performed using Sophion's QPatch assay software in combination with Microsoft Excel™ (Redmond, Wash., USA). Current voltage relationships were plotted from the peak current at the individual voltage steps normalized to the vehicle addition at 10 mV. The voltage threshold for channel activation was defined as 5% activation of the peak current at 10 mV in presence of vehicle. The activity of the compounds was described as the ability to shift this current voltage relationship to more hyperpolarized potentials and is given as the maximum absolute shift possible at the tested concentrations (0.37, 1.11, 3.33, 10, 30 μM). Concentration response curves were plotted from the threshold shift at the individual concentrations and were fitted excel fit model 205 sigmoidal dose-response model (fit=A+((B−A)/1+((C/x)^D)))), where A is the minimum value, B the maximum value, C the EC50 value and D the slope of the curve. The concentration needed to shift the threshold 5 mV was readout from this curve (ECdelta5 mV).", "data": [{"smiles": "Cc1cnc(CNC(=O)c2ccn(S(=O)(=O)c3ccc(F)c(C)c3)c2)cn1", "note": "[Compound 101, 1-(4-fluoro-3-methyl-phenyl)sulfonyl-N-[(5-methylpyrazin-2-yl)methyl]pyrrole-3-carboxamide]", "values": [{"measurement": "ECdelta5 mV", "result": 2000, "unit": "nM"}, {"measurement": "Threshold Shift", "result": 23, "unit": "mV"}]}, {"smiles": "Cc1cnc(CNC(=O)c2ccn(S(=O)(=O)c3cccc(F)c3)c2)cn1", "note": "[Compound 5, 1-(3-fluorophenyl)sulfonyl-N-[(5-methylpyrazin-2-yl)methyl]pyrrole-3-carboxamide]", "values": [{"measurement": "ECdelta5 mV", "result": 7800, "unit": "nM"}, {"measurement": "Threshold Shift", "result": 10, "unit": "mV"}]}, {"smiles": "Cc1cc(CNC(=O)c2ccn(S(=O)(=O)c3ccccc3)c2)on1", "note": "[Compound 84, 1-(benzenesulfonyl)-N-[(3-methyl-1,2-oxazol-5-yl)methyl]-1H-pyrrole-3-carboxamide]", "values": [{"measurement": "ECdelta5 mV", "result": 4600, "unit": "nM"}, {"measurement": "Threshold Shift", "result": 12, "unit": "mV"}]}, {"smiles": "Cc1ccc(S(=O)(=O)n2ccc(C(=O)NCc3ncn(C)n3)c2)cc1", "note": "[Compound 42, N-[(1-methyl-1,2,4-triazol-3-yl)methyl]-1-(p-tolylsulfonyl)pyrrole-3-carboxamide]", "values": [{"measurement": "ECdelta5 mV", "result": 1700, "unit": "nM"}, {"measurement": "Threshold Shift", "result": 25, "unit": "mV"}]}, {"smiles": "COc1ccc(S(=O)(=O)n2ccc(C(=O)NCc3ncc(C)cn3)c2)c(Cl)c1", "note": "[Compound 118, 1-(2-chloro-4-methoxybenzene-1-sulfonyl)-N-[(5-methylpyrimidin-2-yl)methyl]-1H-pyrrole-3-carboxamide]", "values": [{"measurement": "ECdelta5 mV", "result": 2500, "unit": "nM"}, {"measurement": "Threshold Shift", "result": 20, "unit": "mV"}]}, {"smiles": "Cc1cc(C)c(S(=O)(=O)n2ccc(C(=O)NCc3cnc(C)cn3)c2)c(C)c1", "note": "[Compound 103, N-[(5-methylpyrazin-2-yl)methyl]-1-(2,4,6-trimethylphenyl)sulfonyl-pyrrole-3-carboxamide]", "values": [{"measurement": "ECdelta5 mV", "result": 720, "unit": "nM"}, {"measurement": "Threshold Shift", "result": 24, "unit": "mV"}]}, {"smiles": "Cc1ccc(S(=O)(=O)n2ccc(C(=O)NCc3cnc(C)cn3)c2)c(F)c1", "note": "[Compound 95, 1-(2-fluoro-4-methyl-phenyl)sulfonyl-N-[(5-methylpyrazin-2-yl)methyl]pyrrole-3-carboxamide]", "values": [{"measurement": "ECdelta5 mV", "result": 1100, "unit": "nM"}, {"measurement": "Threshold Shift", "result": 24, "unit": "mV"}]}, {"smiles": "Cc1ccc(S(=O)(=O)n2ccc(C(=O)NCc3cn(C)cn3)c2)cc1", "note": "[Compound 40, N-[(1-methylimidazol-4-yl)methyl]-1-(p-tolylsulfonyl)pyrrole-3-carboxamide]", "values": [{"measurement": "ECdelta5 mV", "result": 2000, "unit": "nM"}, {"measurement": "Threshold Shift", "result": 22, "unit": "mV"}]}, {"smiles": "Cc1cnc(CNC(=O)c2ccn(S(=O)(=O)c3ccccc3)c2)cn1", "note": "[Compound 48, 1-(benzenesulfonyl)-N-[(5-methylpyrazin-2-yl)methyl]-1H-pyrrole-3-carboxamide]", "values": [{"measurement": "ECdelta5 mV", "result": 2300, "unit": "nM"}, {"measurement": "Threshold Shift", "result": 18, "unit": "mV"}]}, {"smiles": "COc1ccc(S(=O)(=O)n2ccc(C(=O)NCc3nc(C)no3)c2)cc1", "note": "[Compound 68, 1-(4-methoxybenzene-1-sulfonyl)-N-[(3-methyl-1,2,4-oxadiazol-5-yl)methyl]-1H-pyrrole-3-carboxamide]", "values": [{"measurement": "ECdelta5 mV", "result": 2300, "unit": "nM"}, {"measurement": "Threshold Shift", "result": 21, "unit": "mV"}]}, {"smiles": "Cc1ccc(S(=O)(=O)n2ccc(C(=O)NCc3ncc(C)cn3)c2)cc1", "note": "[Compound 1, N-[(5-methylpyrimidin-2-yl)methyl]-1-(p-tolylsulfonyl)pyrrole-3-carboxamide]", "values": [{"measurement": "ECdelta5 mV", "result": 1600, "unit": "nM"}, {"measurement": "Threshold Shift", "result": 27, "unit": "mV"}]}, {"smiles": "Cc1ccc(S(=O)(=O)n2ccc(C(=O)NCc3cn(C)nn3)c2)cc1", "note": "[Compound 41, N-[(1-methyltriazol-4-yl)methyl]-1-(p-tolylsulfonyl)pyrrole-3-carboxamide]", "values": [{"measurement": "ECdelta5 mV", "result": 3100, "unit": "nM"}, {"measurement": "Threshold Shift", "result": 17, "unit": "mV"}]}, {"smiles": "Cc1ccc(CNC(=O)c2ccn(S(=O)(=O)c3ccccc3)c2)nc1", "note": "[Compound 83, 1-(benzenesulfonyl)-N-[(5-methylpyridin-2-yl)methyl]-1H-pyrrole-3-carboxamide]", "values": [{"measurement": "ECdelta5 mV", "result": 5000, "unit": "nM"}, {"measurement": "Threshold Shift", "result": 13, "unit": "mV"}]}, {"smiles": "COc1ccc(S(=O)(=O)n2ccc(C(=O)NCc3cnccn3)c2)cc1", "note": "[Compound 67, 1-(4-methoxybenzene-1-sulfonyl)-N-[(pyrazin-2-yl)methyl]-1H-pyrrole-3-carboxamide]", "values": [{"measurement": "ECdelta5 mV", "result": 2200, "unit": "nM"}, {"measurement": "Threshold Shift", "result": 23, "unit": "mV"}]}, {"smiles": "O=C(NCc1cnccn1)c1ccn(S(=O)(=O)c2ccccc2F)c1", "note": "[Compound 59, 1-(2-fluorobenzene-1-sulfonyl)-N-[(pyrazin-2-yl)methyl]-1H-pyrrole-3-carboxamide]", "values": [{"measurement": "ECdelta5 mV", "result": 2000, "unit": "nM"}, {"measurement": "Threshold Shift", "result": 14, "unit": "mV"}]}, {"smiles": "Cc1ccc(S(=O)(=O)n2ccc(C(=O)NCc3cccc(C)n3)c2)cc1", "note": "[Compound 15, N-[(6-methyl-2-pyridyl)methyl]-1-(p-tolylsulfonyl)pyrrole-3-carboxamide]", "values": [{"measurement": "ECdelta5 mV", "result": 1700, "unit": "nM"}, {"measurement": "Threshold Shift", "result": 14, "unit": "mV"}]}, {"smiles": "COc1cccnc1CNC(=O)c1ccn(S(=O)(=O)c2ccc(C)cc2)c1", "note": "[Compound 10, N-[(3-methoxy-2-pyridyl)methyl]-1-(p-tolylsulfonyl)pyrrole-3-carboxamide]", "values": [{"measurement": "ECdelta5 mV", "result": 3600, "unit": "nM"}, {"measurement": "Threshold Shift", "result": 10, "unit": "mV"}]}, {"smiles": "Cc1ccc(S(=O)(=O)n2ccc(C(=O)NCc3ncccc3C)c2)cc1", "note": "[Compound 17, N-[(3-methyl-2-pyridyl)methyl]-1-(p-tolylsulfonyl)pyrrole-3-carboxamide]", "values": [{"measurement": "ECdelta5 mV", "result": 2300, "unit": "nM"}, {"measurement": "Threshold Shift", "result": 16, "unit": "mV"}]}, {"smiles": "Cc1cnc(CNC(=O)c2ccn(S(=O)(=O)c3c(C)cc(F)cc3C)c2)cn1", "note": "[Compound 99, 1-(4-fluoro-2,6-dimethyl-phenyl)sulfonyl-N-[(5-methylpyrazin-2-yl)methyl]pyrrole-3-carboxamide]", "values": [{"measurement": "ECdelta5 mV", "result": 1900, "unit": "nM"}, {"measurement": "Threshold Shift", "result": 21, "unit": "mV"}]}, {"smiles": "COc1ccc(S(=O)(=O)n2ccc(C(=O)NCc3ncc(C)cn3)c2)cc1", "note": "[Compound 72, 1-(4-methoxybenzene-1-sulfonyl)-N-[(5-methylpyrimidin-2-yl)methyl]-1H-pyrrole-3-carboxamide]", "values": [{"measurement": "ECdelta5 mV", "result": 2800, "unit": "nM"}, {"measurement": "Threshold Shift", "result": 20, "unit": "mV"}]}, {"smiles": "Cc1ccc(S(=O)(=O)n2ccc(C(=O)NCc3ncon3)c2)cc1", "note": "[Compound 57, 1-(4-methylbenzene-1-sulfonyl)-N-[(1,2,4-oxadiazol-3-yl)methyl]-1H-pyrrole-3-carboxamide]", "values": [{"measurement": "ECdelta5 mV", "result": 3600, "unit": "nM"}, {"measurement": "Threshold Shift", "result": 14, "unit": "mV"}]}, {"smiles": "Cc1noc(CNC(=O)c2ccn(S(=O)(=O)c3ccc(F)cc3)c2)n1", "note": "[Compound 65, 1-(4-fluorobenzene-1-sulfonyl)-N-[(3-methyl-1,2,4-oxadiazol-5-yl)methyl]-1H-pyrrole-3-carboxamide]", "values": [{"measurement": "ECdelta5 mV", "result": 4200, "unit": "nM"}, {"measurement": "Threshold Shift", "result": 14, "unit": "mV"}]}, {"smiles": "COc1ncc(CNC(=O)c2ccn(S(=O)(=O)c3ccc(OC(F)F)cc3)c2)cn1", "note": "[Compound 112, 1-[4-(difluoromethoxy)benzene-1-sulfonyl]-N-[(2-methoxypyrimidin-5-yl)methyl]-1H-pyrrole-3-carboxamide]", "values": [{"measurement": "ECdelta5 mV", "result": 4100, "unit": "nM"}, {"measurement": "Threshold Shift", "result": 17, "unit": "mV"}]}, {"smiles": "Cc1ccc(S(=O)(=O)n2ccc(C(=O)NCc3ncc(C)o3)c2)cc1", "note": "[Compound 33, N-[(5-methyloxazol-2-yl)methyl]-1-(p-tolylsulfonyl)pyrrole-3-carboxamide]", "values": [{"measurement": "ECdelta5 mV", "result": 2200, "unit": "nM"}, {"measurement": "Threshold Shift", "result": 15, "unit": "mV"}]}, {"smiles": "COc1ncc(CNC(=O)c2ccn(S(=O)(=O)c3ccc(C)cc3F)c2)cn1", "note": "[Compound 110, 1-(2-fluoro-4-methylbenzene-1-sulfonyl)-N-[(2-methoxypyrimidin-5-yl)methyl]-1H-pyrrole-3-carboxamide]", "values": [{"measurement": "ECdelta5 mV", "result": 1300, "unit": "nM"}, {"measurement": "Threshold Shift", "result": 24, "unit": "mV"}]}]}
